In PMC3984256, “A PCNA-Derived Cell Permeable Peptide Selectively Inhibits Neuroblastoma Cell Growth” (PLoS ONE, 2014):
Where a SMILES comes first, the peptide text is derived from it. [ ]: non-standard residue; d: D form.

How the values were obtained:
ãH2A.X foci = experiment: γH2A.X foci immunofluorescence after γ-irradiation; format: cell-based; details: 30 µM peptide, 2 h pretreatment, 5 Gy; five fields; vs R9-srbPep
Description: To study DNA damage and repair, attached cells were pretreated with the peptides for 2 h and were then ã-irradiated (5 Gy). After irradiation, cells were cultured in the presence of the peptides for the indicated time. For analyzing ãH2A.X foci formation, cells were fixed in a solution of methanol and acetone (70%:30% v/v) for 15 min at −20°C. The slides were air-dried for storage and rehydrated in PBS prior to immunostaining. Cells were stained by a mouse monoclonal antibody specific to ãH2A.X (Millipore, Billerica, MA) followed by an Alexa Fluor 488 conjugated anti-mouse IgG antibody. For analyzing Rad51 foci formation, cells were fixed in PBS buffered 4% paraformaldehyde at room temperature for 15 min. After being washed twice by PBS, cells were permeabilized in PBS containing 0.5% triton for 15 min on ice. The fixed and permeabilized cells were stained with a rabbit polyclonal antibody raised against the human Rad51 (Santa Cruz) followed by an Alexa Fluor 488 conjugated anti-rabbit IgG antibody. Stained cells were visualized and imaged by a confocal microscope.

[1] = test system: intracellular LIGI or FEN1 level; experiment: Western blot of intracellular LIGI or FEN1 level (data not shown); format: cell-based
[2] = test system: PCNA and LIGI co-localization in SK-N-AS NB cells; experiment: PCNA/LIGI co-localization, immunofluorescence; format: cell-based, human; details: synchronized, 30 µM peptide 6 h after mimosine release
Description: Cells were seeded at 1×10^5/ml onto a chamber slide and were allowed to attach overnight. To analyze the interaction of PCNA with FEN1, LIGI, or Pol ä, we first synchronize cells at the G1/S boundary. The synchronization is achieved by starving cells in medium containing 0.25% FBS for 24 h. Cells were further cultured in the complete medium containing 400 µM of mimosine for 24 h. To release cells into S phase, cells were washed and incubated in mimosine-free medium containing 30 µM R9-caPep or R9-srbPep for 6 h. We pre-determined that the majority of cells were in the S-phase 6 h after mimosine was removed (data not shown). Cells were fixed in ice-cold methanol:acetone (50%:50%) for 10 min or in 4% paraformaldehyde for 20 min at room temperature. Cells were incubated with a goat polyclonal anti-PCNA antibody (Santa Cruz) and a mouse monoclonal anti-FEN1 antibody (Santa Cruz), a mouse anti-POLD3 antibody (Sigma, St. Louis, MO), or a mouse anti-LIGI antibody (Abcam, Cambridge, MA) for 1 h at room temperature. After being washed with PBS, cells were incubated with Alexa Fluor 488 conjugated anti-mouse IgG and Alexa Fluor 555 conjugated anti-goat IgG antibodies (Invitrogen, Grand Island, NY) for 1 h. Cells were mounted in Vectashield with DAPI (Vector Labs, Burlingame, CA) and visualized by a confocal microscope.

CC[C@H](C)[C@H](NC(=O)CNC(=O)[C@H](CC(C)C)NC(=O)[C@H](CS)NC(=O)[C@H](CS)NC(=O)[C@@H](CCCNC(=N)N)NC(=O)[C@@H](CCCNC(=N)N)NC(=O)[C@@H](CCCNC(=N)N)NC(=O)[C@@H](CCCNC(=N)N)NC(=O)[C@@H](CCCNC(=N)N)NC(=O)[C@@H](CCCNC(=N)N)NC(=O)[C@@H](CCCNC(=N)N)NC(=O)[C@@H](CCCNC(=N)N)NC(=O)[C@H](N)CCCNC(=N)N)C(=O)N1CCC[C@H]1C(=O)N[C@@H](CCC(=O)O)C(=O)N[C@@H](CCC(N)=O)C(=O)N[C@@H](CCC(=O)O)C(=O)N[C@@H](Cc1ccc(O)cc1)C(=O)O [R9-caPep] (H-[dR][dR][dR][dR][dR][dR][dR][dR][dR]CCLGIPEQEY-OH; N-terminus and C-terminus assumed)
resolution of ãH2A.X foci (ãH2A.X foci): delayed the resolution of ãH2A.X foci induced by ã-irradiation
intracellular LIGI or FEN1 level [1]: didn't affect intracellular LIGI or FEN1 level
LIGI co-localization with PCNA foci [2]: largely blocked
